Source: patent publication US20260184663A1, “INDENE COMPOUNDS, PHARMACEUTICAL COMPOSITIONS THEREOF, AND THEIR THERAPEUTIC APPLICATIONS” (NucMito Pharmaceuticals co. Ltd., priority 2022, published 2026)

How the values were obtained:
Type in all cases: cell-based
[1] = test system: B16F10 (malignant melanoma); assay: Antiproliferative activity (CCK-8 cell viability), B16F10; conditions: Mus musculus, 72 h, read-out: Antiproliferative activity in cancerous cells, B16F10 (inhibition of cell growth); for inhibition at 3.3 µM: B16-F10, Compound concentration: 3.3 μM; for inhibition at 10 µM: B16-F10, Compound concentration: 10 μM; for inhibition at 30 µM: B16-F10, Compound concentration: 30 μM
Outline: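 Attached B16F10 cells in 96-well plates were incubated with compound at 37° C for 72 h, followed by 10 μL CCK-8 reagent per well and a further 4 h incubation. A multi-well plate reader measured absorbance at 450 nm. Percent viability across replicates was calculated against DMSO vehicle-treated cells.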

[2] = test system: MDA-MB-231 (breast cancer); assay: Antiproliferative activity (CCK-8 cell viability), MDA-MB-231; conditions: Homo sapiens, 72 h, read-out: Antiproliferative activity in cancerous cells, MDA-MB-231 (inhibition of cell growth); for inhibition at 3.3 µM: Compound concentration: 3.3 μM; for inhibition at 10 µM: Compound concentration: 10 μM; for inhibition at 30 µM: Compound concentration: 30 μM
Outline: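 In this CCK-8 viability assay, MDA-MB-231 cells maintained in Dulbecco's modified Eagle's medium containing 10% fetal bovine serum were placed in 96-well plates (2,000-5,000 cells/well) and treated with compound for 72 h at 37° C. A 4 h incubation with 10 μL CCK-8 followed, plates were read at 450 nm, and viability was expressed against DMSO vehicle wells across replicates.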

HepG2 (liver cancer) = assay: Antiproliferative activity (CCK-8 cell viability), HepG2; conditions: Homo sapiens, 72 h, read-out: Antiproliferative activity in cancerous cells, HepG2 (inhibition of cell growth); for inhibition at 3.3 µM: Compound concentration: 3.3 μM; for inhibition at 10 µM: Compound concentration: 10 μM; for inhibition at 30 µM: Compound concentration: 30 μM
Outline: (§1)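 Cells were seeded at 2,000-5,000/well (HeLa in MEM, HepG2 and SW480 in DMEM, A549 in F-12K, all with 10% FBS) and treated with compound at 3.3, 10 or 30 μM for 72 h at 37° C. CCK-8 was added for 4 h, absorbance was read at 450 nm, and viability was expressed relative to DMSO-treated wells.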

SW480 (colon cancer) = assay: Antiproliferative activity (CCK-8 cell viability), SW480; conditions: Homo sapiens, 72 h, read-out: Antiproliferative activity in cancerous cells, SW480 (inhibition of cell growth); for inhibition at 3.3 µM: Compound concentration: 3.3 μM; for inhibition at 10 µM: Compound concentration: 10 μM; for inhibition at 30 µM: Compound concentration: 30 μM
Outline: as §1

[3] = test system: A549 (lung adenocarcinoma); assay: Antiproliferative activity (CCK-8 cell viability), A549; conditions: Homo sapiens, 72 h, read-out: Antiproliferative activity in cancerous cells, A549 (inhibition of cell growth); for inhibition at 3.3 µM: Compound concentration: 3.3 μM; for inhibition at 10 µM: Compound concentration: 10 μM; for inhibition at 30 µM: Compound concentration: 30 μM
Outline: as §1

HeLa (cervical cancer) = assay: Antiproliferative activity (CCK-8 cell viability), HeLa; conditions: Homo sapiens, 72 h, read-out: Antiproliferative activity in cancerous cells, HELA (inhibition of cell growth); for inhibition at 3.3 µM: Compound concentration: 3.3 μM; for inhibition at 10 µM: Compound concentration: 10 μM; for inhibition at 30 µM: Compound concentration: 30 μM
Outline: as §1

[4] = test system: A431 (epidermoid carcinoma); assay: Antiproliferative activity (CCK-8 cell viability), A431; conditions: Homo sapiens, 72 h, read-out: Antiproliferative activity in cancerous cells, A431 (inhibition of cell growth); for inhibition at 3.3 µM: A-431, Compound concentration: 3.3 μM; for inhibition at 10 µM: A-431, Compound concentration: 10 μM; for inhibition at 30 µM: A-431, Compound concentration: 30 μM
Outline: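 Cell viability of compound-treated A431 cells was measured with a Cell Counting Kit-8. Each well received 10 μL of CCK-8 after 72 h of compound exposure, followed by 4 h incubation at 37° C. and a 450 nm plate-reader measurement. Percent viability was calculated relative to DMSO controls across replicates.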

[5] = test system: alpha-smooth muscle actin (α-SMA); assay: Inhibition of TGF-β induced expression of alpha-smooth muscle actin (α-SMA) in CFSC cells (western blot); conditions: compound at 10 μM, TGF-β (10 ng/mL), 24 hours, band intensity vs TGF-β only
Description: The ability of a compound to inhabit the TGF-β induced expression of alpha-smooth muscle actin (α-SMA) was evaluated in CCl4-treated fat storing (CFSC) cells. α-SMA is considered as a reliable marker of hepatic stellate cell activation and a key biomarker for liver fibrosis.
CFSC cells maintained in a DMEM medium supplemented with 10% fetal bovine serum were seeded to 12-well culture dishes and grown to a confluence of 60-70% the next day. Culture was changed to a serum-free DMEM medium, and the cells were treated with a compound at 10 μM in the presence of TGF-β (10 ng/mL). The cells were incubated for another 24 hours. All culture was maintained at 37° C. in 5% carbon dioxide.
An NP-40 lysate solution (50 mM Tris (pH 7.4), 150 mM NaCl, 1% NP-40) with EDTA free cocktail added was used to lyse the cells on ice for 30 min. The lysate was collected and centrifuged at 4° C. for 10 min at 12,000 rpm. The pellet was discarded and the supernatant was transferred to a new tube. Cell lysates were loaded with 5× loading buffer and boiled for 10 min, resolved by 10% SDS-polyacrylamide gel electrophoresis (SDS-PAGE), and transferred to PVDF membrane. The membrane was blocked with 5% skim milk in Tris-buffered saline and TWEEN® 20 (TBST; 10 mM Tris-HCl (pH 8.0), 150 mM NaCl, 0.1% TWEEN® 20) for 1 h at room temperature and then incubated with α-SMA and β-actin antibodies overnight at 4° C. After washing twice with TBST, the membrane was probed with a horseradish […] anti-immunoglobulin (1:5000 dilution) for 1 h at room temperature. After two subsequent rinses in TBST, immunoreactive products were reacted with ECL and visualized by a UVP CHEMSTUDIO™ imaging system. The western blotting bands are quantitated using an ImageJ software. The percentage of inhibition was obtained by calculating the percentage decrease in the band intensity compared to the one treated with TGF-β only.
The results are summarized in Table 1, where A represents a value no less of 80% inhibition, B represents a value less than […] but no less than […], C represents a value less than 50% but no less than 30% inhibition, and D represents a value less than 30% inhibition with a compound at 10 μM.

Row | SMILES | inhibition at 3.3 µM [1] [%] | inhibition at 10 µM [1] [%] | inhibition at 30 µM [1] [%] | inhibition at 3.3 µM [2] [%] | inhibition at 10 µM [2] [%] | inhibition at 30 µM [2] [%] | inhibition at 3.3 µM (HepG2 (liver cancer)) [%] | inhibition at 10 µM (HepG2 (liver cancer)) [%] | inhibition at 30 µM (HepG2 (liver cancer)) [%] | inhibition at 3.3 µM (SW480 (colon cancer)) [%] | inhibition at 10 µM (SW480 (colon cancer)) [%] | inhibition at 30 µM (SW480 (colon cancer)) [%] | inhibition at 3.3 µM [3] [%] | inhibition at 10 µM [3] [%] | inhibition at 30 µM [3] [%] | inhibition at 3.3 µM (HeLa (cervical cancer)) [%] | inhibition at 10 µM (HeLa (cervical cancer)) [%] | inhibition at 3.3 µM [4] [%] | inhibition at 10 µM [4] [%] | inhibition at 10 µM [5] [%] | also measured
1 | CC(C)c1ccc(/C=C2/C(Cc3ccc(F)cc3)=C(CC(=O)O)c3cc(F)ccc32)cc1 [D2, (Z)-2-(5-Fluoro-2-(4-fluorobenzyl)-1-(4-isopropylbenzylidene)-1H-inden-3-yl)-acetic acid] | < 30 | ≥ 50 | ≥ 50 | ≥ 50 | ≥ 50 | ≥ 50 | < 30 | ≥ 50 | ≥ 50 | < 30 | ≥ 50 | ≥ 50 | 30 to 50 | ≥ 50 | ≥ 50 | 30 to 50 | ≥ 50 | < 30 | ≥ 50 | > 80 | inhibition at 30 µM (HeLa (cervical cancer)): ≥ 50%; inhibition at 30 µM [4]: ≥ 50%
2 | CC1=C(CC(=O)O)c2ccc(F)c(F)c2/C1=C\c1ccc(Oc2ccc(F)cc2)cc1 [C10, (Z)-2-(6,7-Difluoro-1-(4-(4-fluorophenoxy)benzylidene)-2-methyl-1H-inden-3-yl)acetic acid] | 30 to 50 | ≥ 50 |  | 30 to 50 | ≥ 50 |  | 30 to 50 | 30 to 50 |  | < 30 | ≥ 50 |  | < 30 | 30 to 50 |  | ≥ 50 | ≥ 50 | < 30 | ≥ 50 | > 80 | 
3 | CCc1ccc(/C=C2/C(Cc3ccc(Oc4ccc(F)cc4)cc3)=C(CC(=O)O)c3cc(F)ccc32)cc1 [A104, (Z)-2-(1-(4-Ethylbenzylidene)-5-fluoro-2-(4-(4-fluorophenoxy)benzyl)-1H-inden-3-yl)acetic acid] | ≥ 50 | ≥ 50 |  | ≥ 50 | ≥ 50 |  | ≥ 50 | ≥ 50 |  | ≥ 50 | ≥ 50 |  | ≥ 50 | ≥ 50 |  | ≥ 50 | ≥ 50 | ≥ 50 | ≥ 50 | > 80 | 
4 | CC1=C(CC(=O)O)c2c(F)ccc(F)c2/C1=C/c1cccc(C(F)(F)F)c1 [E13, (E)-2-(4,7-Difluoro-2-methyl-1-(3-(trifluoromethyl)benzylidene)-1H-inden-3-yl)-acetic acid] | < 30 | ≥ 50 | ≥ 50 | < 30 | < 30 | < 30 | < 30 | < 30 | < 30 | < 30 | < 30 | < 30 | < 30 | ≥ 50 | ≥ 50 | 30 to 50 | 30 to 50 | < 30 | 30 to 50 | < 30 | inhibition at 30 µM (HeLa (cervical cancer)): ≥ 50%; inhibition at 30 µM [4]: ≥ 50%
5 | O=C(O)CC1=C(CC2CCCC2)/C(=C/c2cccc(COc3ccccc3)c2)c2ccc(F)cc21 [A6, (Z)-2-(2-(Cyclopentylmethyl)-5-fluoro-1-(3-(phenoxymethyl)benzylidene)-1H-inden-3-yl)acetic acid] | ≥ 50 | ≥ 50 |  | ≥ 50 | ≥ 50 |  | ≥ 50 | ≥ 50 |  | < 30 | ≥ 50 |  | ≥ 50 | ≥ 50 |  | ≥ 50 | ≥ 50 | ≥ 50 | ≥ 50 | > 80 | 
6 | CCC1=C(CC(=O)O)c2cc(F)ccc2/C1=C\c1ccc(COc2ccccc2)cc1 [A2, (Z)-2-(2-Ethyl-5-fluoro-1-(4-(phenoxymethyl)benzylidene)-1H-inden-3-yl)acetic acid] | 30 to 50 | ≥ 50 |  | ≥ 50 | ≥ 50 |  | 30 to 50 | ≥ 50 |  | < 30 | < 30 |  | 30 to 50 | ≥ 50 |  | 30 to 50 | ≥ 50 | < 30 | 30 to 50 | > 80 | 
